Here are results for two compounds from patent US7964539B2, “Well treatment” (Statoil ASA, priority 2004, dated 2011).

The structures appear in SMILES notation. Converted amounts (≈) assume the structure as drawn. A value given as a limit tells only on which side of the number the result lay.

By IC50 is commonly meant the concentration needed to halve the response being measured. A high value points to a need for much substance. A word on the LC50: it is the concentration that kills 50% of the test population. Read a low LC50 as a more lethal substance. As usually defined, the EC50 is the midpoint of the concentration-response curve. A higher EC50 goes with lower potency in that assay.

In data set [1] the test system is algae. As to the kind of experiment: Algae toxicity (IC50 algae). The class given is cell-based. The text has this: (§1) Organosilanes for use in the invention include, for example, organosilane hydrides, organosilane alkoxides and organosilane amines. Organosilane compounds have the advantage that they are typically oil-soluble and have the necessary reactivity with water. […] Organosilanes for use in the invention preferably have a biodegradability of at least 60%.

Data set [2] in a line: Fish toxicity (LC50 fish). Particulars: in vivo.
Text: as §1

Data set [3] can be described thus: Biodegradability, tested according to OECD 306.
Text: as §1

The test system of data set [4] is daphnia. As to the kind of experiment: Daphnia toxicity (EC50 daphnia). Type of data set: in vivo.
Text: as §1

Compound `CCO[Si](CCCN)(OCC)OCC` [DYNASYLAN AMEO, 3-amino-propyltriethoxysilane] displayed an IC50 in data set [1] of 603 µg/mL (≈ 2720 µM). The compound also displayed an LC50 in data set [2] of 934 µg/mL (≈ 4220 µM). In data set [3], this compound came in with a biodegradability of 67%. Moreover, it took 331 µg/mL (≈ 1500 µM) to reach a half-maximal effect in data set [4] (EC50).
The corresponding values for `CCO[Si](CCCNCCC[Si](OCC)(OCC)OCC)(OCC)OCC` [DYNASYLAN bis-AMEO, bis(triethoxysilylpropyl)amine] are 125 µg/mL (≈ 294 µM), greater than 200 µg/mL, 64.5% and greater than 200 µg/mL.
